# Source: US12390537B2, “Compositions of polymeric microdevices and methods of use thereof in cancer immunotherapy” (Massachusetts Institute of Technology, priority 2020, dated 2025)
# Experiments:
# [1] = tested on: IFNγ+CD8+ T cells; assay: Flow cytometry of IFNγ+CD8+ T cells in serum, B16F10 model; assay type: in vivo, mice
# Description: To stain the intracellular marker, e.g., IFN-γ, cells were pre-stimulated with cell stimulation cocktail (eBioscience, cat. no. 00-4970-93) for 4-6 h, fixed and permeabilized using fixation/permeabilization solution kit (BD, cat. no. 554714), and then stained with both anti-IFN-γ and other surface antibodies. […] Flow cytometry data were acquired on an LSRFortessa cell analyzer (BD) and analyzed using FlowJo software.
# To study whether activation of STING in the TME triggers systemic antitumor immunity, mouse serum was collected from the antitumor efficacy study of B16F10 melanoma model (FIG. 3D) 21 and 28 days after tumor inoculation and analyzed by flow cytometry. cGAMP-MPs and 4×cGAMP-S treatments increased 5.1- and 4.9-fold of IFNγ+CD8+ T cells in serum at day 21 compared to the untreated group (FIG. 5A). […]
# [2] = tested on: ecto-nucleotide pyrophosphatase/phosphodiesterase 1 (ENPP1); details: versus naturally produced 2′3′-cGAMP; Kato K. et al.; cited from earlier work
# [3] = tested on: immune cells in TME of B16F10 melanoma tumors; assay: Flow cytometry of immune cells in B16F10 TME; assay type: in vivo, mice
# Description: (§1) Mice bearing B16F10 tumors were treated with the following 4 experimental groups (n=8): untreated, 1×EPs, 3×cGAMP-S, and 1×cGAMP-S plus cGAMP-MPs, respectively (FIG. 4A). Tumors were collected at day 16 post tumor inoculation and cut into 50-100 mg small pieces in a 1.5 mL microcentrifuge tube. The tumors were lysed in radioimmunoprecipitation assay (RIPA) buffer (Sigma-Aldrich), homogenized, and centrifuged at 20130 rcf for 10 min. The protein content in the supernatant was quantified using a bicinchoninic acid protein assay kit (Thermo Fisher Scientific, MA, USA). Equal amounts of proteins (20 μg) were separated on a 4 to 15% gradient SDS-polyacrylamide gel (Bio-Rad, Hercules, CA) and electro-transferred to nitrocellulose membrane. The membranes were then blocked with 5% milk in tris-buffered saline supplemented with 0.05% Tween 20 and further incubated with GAPDH monoclonal antibody (Invitrogen, CA, cat. no. MA5-27912), phospho-TBK1/NAK (Ser172) (D52C2) Rabbit mAb (Cell Signaling Technology, cat. no. 5483S), or phospho-IRF-3 (S396) Rabbit mAb (Cell Signaling Technology, cat. no. 4947S) at 4° C. overnight. The membranes were then incubated with goat anti-rabbit IgG (H+L) Secondary Antibody, HRP (Invitrogen, cat. no. TG266717) for 1 h at room temperature. Protein bands were visualized by chemiluminescence using the ECL Western Blotting Substrate (Thermo Fisher Scientific, MA).
# To stain the intracellular marker, e.g., IFN-γ, cells were pre-stimulated with cell stimulation cocktail (eBioscience, cat. no. 00-4970-93) for 4-6 h, fixed and permeabilized using fixation/permeabilization solution kit (BD, cat. no. 554714), and then stained with both anti-IFN-γ and other surface antibodies. Antibodies used for flow cytometry studies were anti-CD86-BUV395 (BD, cat. no. 564199), anti-CD45-BUV737 (BD, cat. no. 564880), anti-TCRβ-BV421 (Biolegend, cat. no. 109229), anti-NK1.1-BV605 (Biolegend, cat. no. 108739), anti-NK1.1-BV605 (Biolegend, cat. no. 108739), anti-CD8a-FITC (BD, cat. no. 553030), anti-CD4-PerCP/Cy5.5 (BD, cat. no. 550954), anti-CD62L-PE (Biolegend, cat. no. 104407), anti-CD19-PE/Cy7 (eBioscience, cat. no. 25-0193-81), anti-CD3-PE/594 (Biolegend, cat. no. 100245), anti-FOXP3-APC (eBioscience, cat. no. 17-5773-80), anti-CD11b-AF700 (Biolegend, cat. no. 201222), anti-CD8a-BV421 (Biolegend, cat. no. 100737), anti-Ly6g-BV510 (Biolegend, cat. no. 127633), anti-Siglec F-BV605 (BD, cat. no. 740388), anti-MHC II-BV786 (BD, cat. no. 743875), anti-Ly6c-AF488 (Biolegend, cat. no. 128021), anti-CD11c-PerCP/Cy5.5 (Biolegend, cat. no. 117327), anti-CD206-PE (Biolegend, cat. no. 141705), anti-CD197-PE/594 (Biolegend, cat. no. 120121), anti-F4/80-PE/Cy7 (Biolegend, cat. no. 123113), anti-CD200R3-APC (Biolegend, cat. no. 142207), anti-CD11b-AF700 (Biolegend, cat. no. 101222), and viability dye eFluor 780 (eBiosciecne, cat. no. 65-0865-14). Flow cytometry data were acquired on an LSRFortessa cell analyzer (BD) and analyzed using FlowJo software.
# [4] = tested on: phosphorylated-IRF3 (p-IRF3); assay: Western blot of B16F10 tumors; assay type: in vivo, mice; details: tumors at day 16; cGAMP-MPs single injection, cGAMP-S three injections
# Description: as §1
# [5] = tested on: phosphorylated-TBK1 (p-TBK1); assay: Western blot of B16F10 tumors; assay type: in vivo, mice; details: tumors at day 16; cGAMP-MPs single injection, cGAMP-S three injections
# Description: as §1
# [6] = tested on: CXCL10 mRNA; assay: qPCR of interferon-stimulated genes in B16F10 tumors; assay type: in vivo, mice; details: tumors at day 16; cGAMP-MPs single injection, cGAMP-S three injections
# Description: as §1, with “The membranes were then incubated with goat anti-rabbit IgG (H+L) Secondary Antibody, HRP (Invitrogen, cat. no. TG266717) for 1 h at room temperature. Protein bands were visualized by chemiluminescence using the ECL Western Blotting Substrate (Thermo Fisher Scientific, MA).” left out
# (§2) For q-PCR experiments, total RNAs were extracted from tumors by RNeasy Kit (Qiagen, Inc.) according to manufacturer's protocol. […] Samples were analyzed in triplicates.
# [7] = tested on: IRF7 mRNA; assay: as above; assay type: in vivo, mice; details: tumors at day 16; cGAMP-MPs single injection, cGAMP-S three injections
# Description: as §1, with “The membranes were then incubated with goat anti-rabbit IgG (H+L) Secondary Antibody, HRP (Invitrogen, cat. no. TG266717) for 1 h at room temperature. Protein bands were visualized by chemiluminescence using the ECL Western Blotting Substrate (Thermo Fisher Scientific, MA).” left out
# as §2
# [8] = day 16, cGAMP-MPs single injection, cGAMP-S three injections
smiles,measurement,setting,value
"Nc1nc2c(ncn2[C@@H]2O[C@@H]3COP(=O)(O)O[C@H]4[C@@H](O)[C@H](n5cnc6c(N)ncnc65)O[C@@H]4COP(=O)(O)O[C@H]3[C@H]2O)c(=O)[nH]1 [cGAMP-S, 3′3′-cGAMP]",increase of IFNγ+CD8+ T cells in serum compared to untreated,"[1]; day 21, cGAMP-MPs single injection, cGAMP-S four injections",4.9 fold
same,number of IFNγ+CD8+ T cells in serum,[1]; day 28 versus day 21,remained at an identical level
same,stability against ENPP1,[2],enhanced stability
same,polarization of macrophages within the TME,[3]; 3 doses of soluble cGAMP or 1 dose of cGAMP-MPs,repolarization of M2-like macrophages in the tumor to M1-like phenotype
same,increase of CD8+/CD4+ T cell ratio,[3]; [8],1.2 fold
same,increase of TILs compared to untreated,[3]; [8],approximately 23.5 fold
same,increase of surface expression of CD86 on tumor infiltrating DCs,[3]; [8],1.7 fold
same,increase of tumor-infiltrating CD4+ T cells,[3]; [8],23.6 fold
same,increase of tumor-infiltrating CD8+ T cells,[3]; [8],24.4 fold
same,infiltrating natural killer (NK) cells,[3]; [8],increased
same,"influx of DCs, basophils, monocytes and macrophages",[3]; [8],promoted the influx
same,expression of p-IRF3,[4],high expression levels
same,expression of p-TBK1,[5],high expression levels
same,"CXCL10 mRNA level, fold over untreated",[6],7.2 fold
same,"IRF7 mRNA level, fold over untreated",[7],66.5 fold
